Experimental data published in ChEMBL document CHEMBL1201862, “PubChem BioAssay data set” (2004).
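All cell lines were grown in 96-well plates and treated with compound for 48 hours. GI50 is the concentration that inhibits growth by half.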 The source made the active and inactive calls. Cut-off read from the data, not from the text of the source: active = GI50 up to about 1.1 µM and inactive = higher.

Experiments:
Assay in all cases: NCI tumour cell line growth inhibition, 48 h
UACC-257 = tested on: UACC-257
HL-60 = tested on: HL-60
A549 = tested on: A549
NCI-H460 = tested on: NCI-H460
HT-29 = tested on: HT-29
CAKI-1 = tested on: CAKI-1
COLO 205 = tested on: COLO 205
KM12 = tested on: KM12
ACHN = tested on: ACHN
NCI-H522 = tested on: NCI-H522
NCI/ADR-RES = tested on: NCI/ADR-RES
RXF 393 = tested on: RXF 393
NCI-H226 = tested on: NCI-H226
SK-MEL-2 = tested on: SK-MEL-2
CCRF-CEM = tested on: CCRF-CEM
SF-295 = tested on: SF-295
SK-OV-3 = tested on: SK-OV-3
DMS-273 = tested on: DMS-273
SNB-78 = tested on: SNB-78
DLD-1 = tested on: DLD-1

Measured: GI50

C=CCn1c(=O)ccn(COCCO)c1=O
inactive: UACC-257 > 100 µM | HL-60 > 100 µM | A549 > 100 µM | NCI-H460 > 100 µM | HT-29 > 100 µM | CAKI-1 > 100 µM | COLO 205 > 100 µM | KM12 > 100 µM | ACHN > 100 µM | NCI-H522 > 100 µM | NCI/ADR-RES > 100 µM | RXF 393 > 100 µM | NCI-H226 > 100 µM | SK-MEL-2 > 100 µM | CCRF-CEM > 100 µM

CCOC(=O)c1cc2c([N+](=O)[O-])c(NC(C)=O)ccc2s1
inactive: UACC-257 > 100 µM | HL-60 31.7 µM | A549 50.2 µM | NCI-H460 > 100 µM | HT-29 89.7 µM | CAKI-1 41.6 µM | COLO 205 34.8 µM | SF-295 69.3 µM | SK-OV-3 > 100 µM | KM12 74.8 µM | ACHN 41.7 µM | NCI-H522 34.2 µM | NCI/ADR-RES 55.2 µM | RXF 393 20.2 µM | NCI-H226 13.3 µM | SK-MEL-2 > 100 µM | CCRF-CEM 53 µM

CSCCC(N)P(C)(=O)O (centres undefined)
inactive: UACC-257 > 100 µM | HL-60 > 100 µM | A549 > 100 µM | NCI-H460 > 100 µM | HT-29 > 100 µM | CAKI-1 > 100 µM | COLO 205 > 100 µM | SF-295 > 100 µM | SK-OV-3 > 100 µM | KM12 > 100 µM | ACHN > 100 µM | NCI-H522 > 100 µM | NCI/ADR-RES > 100 µM | RXF 393 > 100 µM | NCI-H226 > 100 µM | SK-MEL-2 > 100 µM | CCRF-CEM > 100 µM

O=C1/C(=C/c2ccccc2)NC(=S)N1CN1CCOCC1
inactive: UACC-257 > 100 µM | A549 > 100 µM | HT-29 > 100 µM | COLO 205 > 100 µM | SF-295 > 100 µM | SK-OV-3 > 100 µM | KM12 > 100 µM | ACHN > 100 µM | NCI/ADR-RES > 100 µM | NCI-H226 > 100 µM | SK-MEL-2 > 100 µM | CCRF-CEM > 100 µM

O=[N+]([O-])C(/C=C(\Cl)[N+](=O)[O-])=C1Nc2ccccc2N1
inactive: UACC-257 33.3 µM | HL-60 45.8 µM | A549 > 100 µM | NCI-H460 > 100 µM | HT-29 39.6 µM | CAKI-1 22.1 µM | COLO 205 30.5 µM | SF-295 35.4 µM | SK-OV-3 42.4 µM | KM12 > 100 µM | ACHN 44.4 µM | NCI-H522 > 100 µM | NCI/ADR-RES > 100 µM | RXF 393 38.1 µM | NCI-H226 43.3 µM | CCRF-CEM 34.8 µM

O=P(CCOc1ccccc1OCCP(=O)(c1ccccc1)c1ccc2c(c1)OCCOCCOCCOCCO2)(c1ccccc1)c1ccc2c(c1)OCCOCCOCCOCCO2 (centres undefined)
inactive: UACC-257 > 100 µM | HL-60 > 100 µM | A549 > 100 µM | NCI-H460 > 100 µM | HT-29 > 100 µM | DMS-273 > 100 µM | COLO 205 > 100 µM | SF-295 > 100 µM | SK-OV-3 > 100 µM | ACHN > 100 µM | NCI-H522 > 100 µM | SNB-78 > 100 µM | RXF 393 > 100 µM | DLD-1 > 100 µM | NCI-H226 > 100 µM | SK-MEL-2 > 100 µM | CCRF-CEM > 100 µM

COc1ccc(C2=NN(c3nsc4ccccc34)C(=O)CC2)cc1
inactive: UACC-257 > 100 µM | HL-60 39.4 µM | A549 > 100 µM | NCI-H460 62.7 µM | HT-29 > 100 µM | DMS-273 > 100 µM | COLO 205 > 100 µM | KM12 > 100 µM | ACHN > 100 µM | SNB-78 > 100 µM | RXF 393 > 100 µM | SK-MEL-2 > 100 µM | CCRF-CEM 82.6 µM

COC(=O)C(=O)C(C(C)=O)C(=O)C(=O)Nc1ccc(C)cc1C (centres undefined)
inactive: UACC-257 > 100 µM | HL-60 > 100 µM | A549 > 100 µM | NCI-H460 > 100 µM | HT-29 > 100 µM | CAKI-1 > 100 µM | DMS-273 > 100 µM | COLO 205 > 100 µM | SF-295 > 100 µM | SK-OV-3 > 100 µM | KM12 > 100 µM | ACHN > 100 µM | NCI-H522 > 100 µM | RXF 393 > 100 µM | DLD-1 > 100 µM | NCI-H226 > 100 µM | SK-MEL-2 > 100 µM | CCRF-CEM > 100 µM

CC(C)(C)[Si](OC1CCOC1=O)(c1ccccc1)c1ccccc1 (centres undefined)
inactive: UACC-257 17.1 µM | HL-60 14.4 µM | A549 15.2 µM | NCI-H460 18.7 µM | HT-29 15.3 µM | COLO 205 > 10 µM | SF-295 16 µM | SK-OV-3 33.9 µM | KM12 > 10 µM | ACHN 19.1 µM | NCI-H522 13.8 µM | SNB-78 32.2 µM | DLD-1 22.2 µM | SK-MEL-2 16.6 µM | CCRF-CEM 25.6 µM

Cc1nc2cccc(F)c2c(=O)n1C1CCCCNC1=O (centres undefined)
inactive: UACC-257 > 10 µM | HL-60 > 10 µM | A549 > 10 µM | NCI-H460 > 10 µM | HT-29 > 10 µM | CAKI-1 > 10 µM | COLO 205 > 10 µM | SF-295 > 10 µM | SK-OV-3 > 10 µM | KM12 > 10 µM | ACHN > 10 µM | NCI-H522 > 10 µM | NCI/ADR-RES > 10 µM | RXF 393 > 10 µM | NCI-H226 > 10 µM | SK-MEL-2 > 10 µM | CCRF-CEM > 10 µM

NC(=S)N/N=C1\CC(c2ccccc2)Nc2ccccc21 (centres undefined)
inactive: HL-60 11 µM | NCI-H460 32.7 µM | HT-29 17.2 µM | CAKI-1 66.7 µM | DMS-273 32.3 µM | COLO 205 28.1 µM | SF-295 60.3 µM | SK-OV-3 39.1 µM | ACHN 46.3 µM | NCI-H522 25.2 µM | SNB-78 68.9 µM | DLD-1 35.2 µM | NCI-H226 39 µM | CCRF-CEM 29.6 µM

CCOP(=Nc1ccc(N(C)C)cc1)(OCC)OCC
inactive: UACC-257 > 100 µM | A549 > 100 µM | NCI-H460 > 100 µM | CAKI-1 > 100 µM | COLO 205 > 100 µM | SF-295 > 100 µM | SK-OV-3 > 100 µM | KM12 > 100 µM | ACHN > 100 µM | NCI-H522 > 100 µM | NCI/ADR-RES > 100 µM | RXF 393 > 100 µM | SK-MEL-2 > 100 µM

COc1c(Cl)cc(Cl)cc1S(=O)O
inactive: UACC-257 > 100 µM | HL-60 > 100 µM | NCI-H460 > 100 µM | HT-29 > 100 µM | SK-OV-3 > 100 µM | KM12 > 100 µM | ACHN > 100 µM | NCI-H522 > 100 µM | SNB-78 > 100 µM | RXF 393 > 100 µM | DLD-1 > 100 µM | SK-MEL-2 > 100 µM | CCRF-CEM > 100 µM

CC[C@@H]1C[C@@H]2CN3CCc4c([nH]c5ccc(OC)cc45)C(COC(=O)c4ccc(OC)c(OC)c4)(C2)C13
inactive: UACC-257 18.3 µM | HL-60 14.5 µM | A549 33 µM | NCI-H460 21.3 µM | HT-29 7.82 µM | CAKI-1 19.5 µM | COLO 205 21.2 µM | SF-295 19.5 µM | KM12 23.8 µM | ACHN 24.4 µM | SNB-78 19.6 µM | RXF 393 14.2 µM | NCI-H226 10.4 µM | SK-MEL-2 > 10 µM | CCRF-CEM 14.3 µM

CON(C)C(=O)C(Cc1ccccc1)NC(=O)OCc1ccccc1 (centres undefined)
inactive: UACC-257 86.1 µM | HL-60 > 100 µM | A549 > 100 µM | NCI-H460 > 100 µM | HT-29 > 100 µM | CAKI-1 > 100 µM | DMS-273 > 100 µM | COLO 205 > 100 µM | SF-295 > 100 µM | SK-OV-3 > 100 µM | KM12 > 100 µM | ACHN > 100 µM | NCI-H522 58.6 µM | SNB-78 > 100 µM | RXF 393 > 100 µM | DLD-1 > 100 µM | SK-MEL-2 > 100 µM | CCRF-CEM > 100 µM

Cc1cccc(/C=C2\CCCc3ccccc3C2=O)c1
inactive: UACC-257 21.6 µM | HL-60 12.1 µM | A549 24.2 µM | NCI-H460 16.8 µM | HT-29 18.5 µM | CAKI-1 30.4 µM | COLO 205 18.9 µM | SF-295 19.5 µM | SK-OV-3 62.4 µM | KM12 13.4 µM | ACHN 26.5 µM | NCI-H522 12.7 µM | NCI/ADR-RES 22.4 µM | NCI-H226 20.6 µM | SK-MEL-2 16.7 µM | CCRF-CEM 13.7 µM

NC(=O)c1csc(C2O[C@@H](COP(=O)(O)OP(=O)(O)OC[C@H]3OC(n4cnc5c(N)ncnc54)[C@H](O)[C@@H]3O)[C@H](O)[C@@H]2O)n1 (some centres undefined)
inactive: UACC-257 66.8 µM | HL-60 67.3 µM | A549 > 100 µM | NCI-H460 39.6 µM | HT-29 87.5 µM | CAKI-1 97.9 µM | DMS-273 99.5 µM | COLO 205 > 100 µM | SF-295 30 µM | SK-OV-3 > 100 µM | KM12 88.1 µM | ACHN > 100 µM | NCI-H522 52.8 µM | SNB-78 > 100 µM | DLD-1 45.2 µM | NCI-H226 > 100 µM | SK-MEL-2 > 100 µM | CCRF-CEM > 100 µM
